Tests used:
[1] = tested on: NCI-H460 cells; test: Cytotoxicity assay (sulforhodamine B), NCI-H460; assay type: cell-based
Experimental: (§1) Methods. NCI-H460, HCT-15, OVCAR-3, CACO-2, MCF-7, HT-29, and HCT-116 cells were inoculated into 96 well microtiter plates in 100 microliters of medium at plating densities ranging from 5000 to 40000 cells/well, as given by NCI tables. After cell inoculation, the microtiter plates were incubated at 37° C., 5% CO2, 95% air, and 100% relative humidity for 24 hours. After 24 hours, 2 control plates of each cell line (time zero controls) were fixed by the addition of 30% trichloroacetic acid (TCA, final TCA concentration is 10% w/v). S-9168 was solubilized in saline. […] Additional 4, 10 fold, or ½ log serial dilutions were made to provide a total of five drug concentrations plus controls. Aliquots of 100 microliters of different drug dilutions were added to the appropriate microtiter wells already containing 100 microliters of medium. Following drug addition, the plates were incubated for an additional 48 hours under the same conditions provided above. The assays were terminated by the addition of cold TCA as described above for the time zero controls. The plates were then incubated at 4° C. for at least 60 minutes to fix the cells to the bottom of the plate. […] After staining, unbound dye was removed by washing five times with 1% acetic acid and the plates were allowed to air dry for 12-24 hours at room temperature. […]

[2] = tested on: HCT-15 cells; test: Cytotoxicity assay (sulforhodamine B), HCT-15; assay type: cell-based
Experimental: as §1

[3] = tested on: OVCAR-3 cells; test: Cytotoxicity assay (sulforhodamine B), OVCAR-3; assay type: cell-based; conditions: OVCAR-3, Assay 6, 48 h drug exposure
Experimental: as §1

[4] = tested on: rats; test: Plasma creatinine as measure of renal function (Example 7); assay type: in vivo; conditions: rat plasma, 8 mg/kg cisplatin, 9.9 mg/kg carboplatin, 19.6 mg/kg S-9168
Experimental: Methods. Three groups of two rats were cannulated in the jugular vein and allowed to recover for approximately 24 hours. […] Blood samples (1.8 ml) were taken via the jugular vein canal before treatment (day 0) and 1, 2, 3, and 4 days after treatment, spun at 8000 rpm. for 2 minutes, and the plasma was removed. Creatinine assays were performed using the Sigma Creatinine Kit (Sigma Diagnostics Co., St. Louis, Mo.; Cat. No. 555-A) according to the Sigma creatinine assay protocol, in which the difference in color intensity at 500 nm of a sample containing creatinine and alkaline picrate solution before and after acidification is measured. The limit of linearity for the UV spectrophotometer was established by using the calibration curve procedure in the Sigma creatinine assay protocol.
(§2) Methods. Four groups of eight rats were cannulated as described in Example 6. […] The fourth group of rats was dosed with saline. Two rats in each group were sacrificed on days 4, 6, and 8 after treatment and 2 ml of blood were withdrawn. The blood sample was spun at 8000 rpm. for 2 minutes and the plasma was removed. Creatinine assays were performed as described in Example 6.

[5] = tested on: rats; test: Blood urea nitrogen (BUN) as measure of renal function (Example 8); assay type: in vivo; conditions: rat plasma, 8 mg/kg cisplatin, 9.9 mg/kg carboplatin, 19.6 mg/kg S-9168
Experimental: as §2, with “removed. BUN” for “removed. Creatinine”, “performed using the Sigma Blood Urea Nitrogen Kit (Sigma Diagnostics Co., St. Louis, Mo.; Cat. No. 535-A).” for “performed as described in Example 6.”

[6] = tested on: NCI-H460 cells; conditions: NCI-H460, previously determined NCI values; cited from earlier work
[7] = tested on: HCT-15 cells; conditions: HCT-15, previously determined NCI values; cited from earlier work
[8] = tested on: OVCAR-3 cells; conditions: OVCAR-3, previously determined NCI value; cited from earlier work
[9] = tested on: MCF-7 cells; conditions: MCF-7, previously determined NCI values; cited from earlier work
[10] = tested on: HT-29 cells; conditions: HT-29, previously determined NCI values; cited from earlier work
[11] = tested on: HCT-116 cells; conditions: HCT-116, previously determined NCI values; cited from earlier work
[12] = tested on: MCF-7 cells; test: Cytotoxicity assay (sulforhodamine B), MCF-7; assay type: cell-based
Experimental: as §1

[13] = tested on: HT-29 cells; test: Cytotoxicity assay (sulforhodamine B), HT-29; assay type: cell-based; conditions: HT-29, Assay 8, 48 h drug exposure
Experimental: as §1

[14] = tested on: HCT-116 cells; test: Cytotoxicity assay (sulforhodamine B), HCT-116; assay type: cell-based; conditions: HCT-116, Assay 9, 48 h drug exposure
Experimental: as §1

Structure (SMILES): N.N.O=C([O-])C1(C(=O)[O-])CCC1.[Pt+2] [Carboplatin, cis-diamine[1,1-cyclobutnaedicarboxylate(2-)-O,O′-platinum(II)]
- GI50 (log) ([1]; NCI-H460, Assay 2, 48 h drug exposure): (−4.96) Pt mg/ml (log)
- GI50 (log) ([2]; HCT-15, Assay 2, 48 h drug exposure): (−4.31) Pt mg/ml (log)
- GI50 (log) [3]: (−4.82) Pt mg/ml (log)
- average creatinine level ([4]; day 4): 0.6659 mg/dL
- average creatinine level ([4]; day 6): 0.7039 mg/dL
- average creatinine level ([4]; day 8): 0.5402 mg/dL
- average BUN level ([5]; day 4): 28.92 mg/dL
- average BUN level ([5]; day 6): 21.59 mg/dL
- average BUN level ([5]; day 8): 25.52 mg/dL
- GI50 (log), NCI values [6]: (−5.21) Pt mg/ml (log)
- GI50 (log), NCI values [7]: (−4.31) Pt mg/ml (log)
- GI50 (log), NCI value [8]: (−4.91) Pt mg/ml (log)
- GI50 (log), NCI values [9]: (−4.61) Pt mg/ml (log)
- GI50 (log), NCI values [10]: (−4.41) Pt mg/ml (log)
- GI50 (log), NCI values [11]: (−4.51) Pt mg/ml (log)

Structure (SMILES): N.N.[Cl][Pt][Cl] [Cisplatin, cis-diaminedichloroplatinum(II)]
- GI50 (log) ([1]; NCI-H460, Assay 1, 48 h drug exposure): (−6.98) Pt mg/ml (log)
- GI50 (log) ([2]; HCT-15, Assay 5, 48 h drug exposure): (−6.65) Pt mg/ml (log)
- GI50 (log) ([12]; MCF-7, Assay 2, 48 h drug exposure): (−5.10) Pt mg/ml (log)
- GI50 (log) ([12]; MCF-7, Assay 7, 48 h drug exposure): (−6.14) Pt mg/ml (log)
- GI50 (log) [13]: (−5.99) Pt mg/ml (log)
- GI50 (log) [14]: (−6.13) Pt mg/ml (log)
- GI50 (log), NCI values [6]: (−6.92) Pt mg/ml (log)
- GI50 (log), NCI values [7]: (−5.82) Pt mg/ml (log)
- GI50 (log), NCI value [8]: (−6.32) Pt mg/ml (log)
- GI50 (log), NCI values [9]: (−6.22) Pt mg/ml (log)
- GI50 (log), NCI values [10]: (−5.82) Pt mg/ml (log)
- GI50 (log), NCI values [11]: (−6.12) Pt mg/ml (log)

Reference: patent US20060142593A1, “Platinum compounds” (Sonus Pharmaceuticals, Inc., priority 2002, published 2006)
